Laboratory results reported in US4716171A (Etablissements Nativelle S.A., priority 1981, dated 1987).
Like-named read-outs stand apart in the source and are kept apart here.

Legend:
[1] = LD50 in rats (Lichfield and Wilcoxon method); conditions: rat, in vivo, male, oral
Description: (§1) For example, the results obtained with 3S-hydroxy-10,11-dihydroquinidine in the form of the hydrochloride salt are shown in Table 1 below.

[2] = LD50 in mice (Lichfield and Wilcoxon method); conditions: mouse, in vivo
Description: as §1

[3] = Electrophysiological study in anesthetized dog (closed thorax, bipolar catheter-electrodes); format: in vivo
Procedure: The study was carried out on a dog anesthetized with pentobarbital, with a closed thorax, by means of bipolar catheter-electrodes introduced into the cardiac cavities by transcutaneous venous and arterial tracts.
In this manner and by means of a programmable stimulator, sinusal automaticity, intracardiac conduction times, and the effective and functional cardiac refractory periods can be measured.

arrhythmia = test: Test with aconitine (arrhythmia appearance time); format: in vivo, rats; conditions: for Appearance Time, ESV (ventricular extrasystoles): control 98; for Appearance Time, TV (ventricular tachycardium): control 112; for Appearance Time, FV (ventricular fibrillation): control 228; for Appearance Time, ESV (ventricular extrasystoles), %: vs control 98; for Appearance Time, TV (ventricular tachycardium), %: vs control 112
Description: (§2) Antiarrhythmic activity in mice was observed by means of the Lawson test, using the method described by J. W. Lawson, J. Pharmacol. Exp. Therp., 160, 22-31 (1968) and Cr. Narcisse et al. Ann. Pharma. Fr., 37, 325-330 (1979), in rats by the test with aconitine of S. Witchitz et al. Coeur Med. Int., X(2), 281-286 (1971), and in dogs by the Harris test described in Circulation, 1, 1318 (1950). 3S-hydroxy-10,11-dihydroquinidine was used for each of these three tests.

ventricular arrhythmia = test: Harris test; format: in vivo, dogs; conditions: for % Protection / % Protection, Average: dogs, I.V.; for % Protection, Average: average of Exp. 1 and 2
Description: as §2

[4] = set-up: species or system dogs; conditions: dog, in vivo, iv
Procedure: The parameters were recorded by means of: catheters connected to pressure sensors (arterial pressure, left ventricular pressure and its first dp/dt derivative); electromagnetic flowmeter on the aorta (aortic flow); electrocardiograph; strain gauge placed on the left ventricular myocardium (myocardiac contraction force).

[5] = system: anoxic ventricular fibrillation; test: Lawson test (antifibrillatory power); format: in vivo, mice
Description: as §2
The Lawson test enables the study of the cardiac antifibrillatory power of the derivatives of the present invention. […] The efficacity dose 50 (ED50) indicated in Table 4 is the dose which protects half of the mice against anoxic ventricular fibrillation.

## CC[C@@]1(O)CN2CC[C@H]1C[C@@H]2[C@@H](O)c1ccnc2ccc(OC)cc12 [3S-hydroxy-10,11-dihydroquinidine]
[1]
  LD50: 640 mg/kg
[2]; ip, mice, female, IP, read-out: LD50
  LD50: 180 mg/kg
[2]; ip, mice, male, IP, read-out: LD50
  LD50: 280 mg/kg
[2]; iv, mice, female, IV, read-out: LD50
  LD50: 105 mg/kg
[2]; iv, mice, male, IV, read-out: LD50
  LD50: 120 mg/kg
[2]; po, mice, female, oral, read-out: LD50
  LD50: 900 mg/kg
[2]; po, mice, male, oral, read-out: LD50
  LD50: 975 mg/kg

## CC[C@@]1(O)CN2CC[C@H]1C[C@@H]2[C@@H](O)c1ccnc2ccc(OC)cc12 [3S-hydroxy-10,11-dihydroquinidine, 3S-Hydroxy-10,11-dihydroquinidine]
[3]; 1 mg/kg
  Cardiac Cycle, percentage of variation: +4.5%
  HV (HissPurkinje conduction), percentage of variation: +10.8%
  PREA (Effective auricular refractory period), percentage of variation: +8%
  PREV (Effective ventricular refractory period), percentage of variation: -1.5%
  PRFN (Functional nodal refractory period), percentage of variation: 0%
  QRS (Intraventricular conduction), percentage of variation: +14.4%
  QTc (Corrected repolarization time), percentage of variation: +2.8%
  SH (AuriculoHissian conduction), percentage of variation: +1.7%
[3]; 5 mg/kg
  Cardiac Cycle, percentage of variation: +5.1%
  HV (HissPurkinje conduction), percentage of variation: +20.9%
  PREA (Effective auricular refractory period), percentage of variation: +16%
  PREV (Effective ventricular refractory period), percentage of variation: +2.8%
  PRFN (Functional nodal refractory period), percentage of variation: +5.5%
  QRS (Intraventricular conduction), percentage of variation: +14.4%
  QTc (Corrected repolarization time), percentage of variation: +7%
  SH (AuriculoHissian conduction), percentage of variation: +3.8%
[3]; 10 mg/kg
  Cardiac Cycle, percentage of variation: +14. %
  HV (HissPurkinje conduction), percentage of variation: +32.8%
  PREA (Effective auricular refractory period), percentage of variation: +23.7%
  PREV (Effective ventricular refractory period), percentage of variation: +6.5%
  PRFN (Functional nodal refractory period), percentage of variation: +12.6%
  QRS (Intraventricular conduction), percentage of variation: +22%
  QTc (Corrected repolarization time), percentage of variation: +6%
  SH (AuriculoHissian conduction), percentage of variation: +15%
[3]; compared with quinidine
  cardiac frequency (in words): slows cardiac frequency like quinidine
  cardiac refractory periods, level of the auricles (in words): greater than those of quinidine
  cardiac refractory periods, ventricular and nodal stage (in words): effects equivalent to those of quinidine
  conduction in the His-Purkinje system (in words): effects greater than those of quinidine
[3]; dog, in vivo
  conduction between the auricles and the trunk of the His fasciculus (in words): slightly changes conduction
arrhythmia; compared with quinidine
  protective effect against arrhythmia (in words): greater than that of quinidine
arrhythmia; compared with quinidine, quantitative level
  activity in the test with aconitine (in words): considerably more active than quinidine
arrhythmia; rats, I.V., 10 mg/kg
  Appearance Time, ESV (ventricular extrasystoles): 208 min
  Appearance Time, TV (ventricular tachycardium): 253 min
  Appearance Time, FV (ventricular fibrillation): 504 min
  Appearance Time, ESV (ventricular extrasystoles), %: +112%
  Appearance Time, TV (ventricular tachycardium), %: +125%
arrhythmia; rats, I.V., 10 mg/kg, vs control 228
  Appearance Time, FV (ventricular fibrillation), %: +121%
Ventricular arrhythmia; 6 mg/kg, compared with quinidine
  decrease in ventricular arrhythmia (in words): greater with the compound of the present invention than with quinidine
Ventricular arrhythmia; 6 mg/kg, 1 h, Exp. 1
  % Protection: 65%
Ventricular arrhythmia; 6 mg/kg, 1 h, Exp. 2
  % Protection: 39%
Ventricular arrhythmia; 6 mg/kg, 1 h
  % Protection, Average: 52%
Ventricular arrhythmia; +10 mg/kg, 1 h, Exp. 1
  % Protection: 72%
Ventricular arrhythmia; +10 mg/kg, 1 h, Exp. 2
  % Protection: 42%
Ventricular arrhythmia; +10 mg/kg, 1 h
  % Protection, Average: 57%
Ventricular arrhythmia; +10 mg/kg, 2 h, Exp. 1
  % Protection: 97%
Ventricular arrhythmia; +10 mg/kg, 2 h, Exp. 2
  % Protection: 41%
Ventricular arrhythmia; +10 mg/kg, 2 h
  % Protection, Average: 69%
Ventricular arrhythmia; higher doses, compared with quinidine
  efficacity (in words): comparable for higher doses
[4]
  cardiac flow (in words): no significant change before a cumulative dose of 20 mg/kg is reached
  cardiac frequency (in words): not significantly modified before a cumulative dose of 20 mg/kg is reached
  myocardiac contraction force (in words): no change
  systolic arterial pressure (in words): diminishes progressively with the dose, the effects only becoming considerable for a cumulative dose greater than 10 mg/kg
[4]; 0.5 mg/kg
  Cardiac Flow, variation in relation to initial value: -50 ± 50 mL/min
  Cardiac Frequency, variation in relation to initial value: -2 ± 6 beats/min.
  Force of Contractions of the Myocardium, variation in relation to initial value: -3 ± 3 g
  Systolic Arterial Pressure, variation in relation to initial value: -11 ± 4 mmHg
  Total Peripheral Resistance, variation in relation to initial value: -382 ± 180
[4]; 4 mg/kg
  Cardiac Flow, variation in relation to initial value: -90 ± 143 mL/min
  Cardiac Frequency, variation in relation to initial value: -5 ± 2 beats/min.
  Force of Contractions of the Myocardium, variation in relation to initial value: 0 ± 1 g
  Systolic Arterial Pressure, variation in relation to initial value: -20 ± 5 mmHg
  Total Peripheral Resistance, variation in relation to initial value: -457 ± 277
[4]; 5 mg/kg
  Cardiac Flow, variation in relation to initial value: -316 ± 412 mL/min
  Cardiac Frequency, variation in relation to initial value: -3 ± 16 beats/min.
  Force of Contractions of the Myocardium, variation in relation to initial value: 2 ± 1 g
  Systolic Arterial Pressure, variation in relation to initial value: -23 ± 7 mmHg
  Total Peripheral Resistance, variation in relation to initial value: -376 ± 227
[4]; 10 mg/kg
  Cardiac Flow, variation in relation to initial value: -775 ± 498 mL/min
  Cardiac Frequency, variation in relation to initial value: -15 ± 13 beats/min.
  Force of Contractions of the Myocardium, variation in relation to initial value: 8 ± 1 g
  Systolic Arterial Pressure, variation in relation to initial value: -36 ± 13 mmHg
  Total Peripheral Resistance, variation in relation to initial value: -91
[5]; Mus musculus, ip, mice, I.P., read-out: ED 50 (dose which protects half of the mice against anoxic ventricular fibrillation)
  ED50: 72.5 mg/kg
[5]; compared with quinidine
  antifibrillatory efficacity (in words): comparable to that of quinidine

## C=C[C@H]1C[N@@]2CC[C@H]1C[C@@H]2[C@@H](O)c1ccnc2ccc(OC)cc12 [Quinidine, quinidine, reference compound]
[2]; ip, mice (male and female), intraperitoneal, comparison, read-out: LD50 (average values)
  LD50: 225 to 235 mg/kg
[3]; 1 mg/kg
  Cardiac Cycle, percentage of variation: +2.7%
  HV (HissPurkinje conduction), percentage of variation: 0%
  PREA (Effective auricular refractory period), percentage of variation: +2%
  PREV (Effective ventricular refractory period), percentage of variation: +3.3%
  PRFN (Functional nodal refractory period), percentage of variation: +3%
  QRS (Intraventricular conduction), percentage of variation: 0%
  QTc (Corrected repolarization time), percentage of variation: +1.8%
  SH (AuriculoHissian conduction), percentage of variation: +3.5%
[3]; 5 mg/kg
  Cardiac Cycle, percentage of variation: +5.1%
  HV (HissPurkinje conduction), percentage of variation: +8.7%
  PREA (Effective auricular refractory period), percentage of variation: +3.5%
  PREV (Effective ventricular refractory period), percentage of variation: +6.5%
  PRFN (Functional nodal refractory period), percentage of variation: +5%
  QRS (Intraventricular conduction), percentage of variation: 0%
  QTc (Corrected repolarization time), percentage of variation: 0%
  SH (AuriculoHissian conduction), percentage of variation: +7.2%
[3]; 10 mg/kg
  Cardiac Cycle, percentage of variation: +9.2%
  HV (HissPurkinje conduction), percentage of variation: +17.7%
  PREA (Effective auricular refractory period), percentage of variation: +14.4%
  PREV (Effective ventricular refractory period), percentage of variation: +8.5%
  PRFN (Functional nodal refractory period), percentage of variation: +9%
  QRS (Intraventricular conduction), percentage of variation: 0%
  QTc (Corrected repolarization time), percentage of variation: +1.5%
  SH (AuriculoHissian conduction), percentage of variation: +10.5%
arrhythmia; rats, I.V., 10 mg/kg
  Appearance Time, ESV (ventricular extrasystoles): 150 min
  Appearance Time, TV (ventricular tachycardium): 171 min
  Appearance Time, FV (ventricular fibrillation): 474 min
  Appearance Time, ESV (ventricular extrasystoles), %: +53%
  Appearance Time, TV (ventricular tachycardium), %: +52%
Ventricular arrhythmia; quinidine, 6 mg/kg, 1 h
  % Protection: 21%
Ventricular arrhythmia; quinidine, +5 mg, 1 h
  % Protection: 55%
Ventricular arrhythmia; quinidine, +5 mg, 2 h
  % Protection: 52%
